# Legend:
# [1] = system: bone marrow mesenchymal stromal cells (BMSC); assay: BMSC proliferation in alginic acid gel beads (Cell Counting Kit-8); assay type: cell-based, Japanese white rabbit; conditions: 10 μg/ml SDF-1 or 250 μg/ml AMD3100 in alginic acid gel beads vs alginic acid only, up to 7 days, n=5
# Description: (§1) Bone marrows were collected from a tibia of a 15-week-old Japanese white rabbit to isolate and culture bone marrow mesenchymal stromal cells (BMSC). Isolation was carried out according to the method of Wakitani et al. (Wakitani S et al., J bone Joint Surg Am, Vol. 76, p 579, 1994). The isolated cells were incubated at 37° C. under humidified 5% CO2 and maintained in monolayer culture.
# (§2) Proliferation and differentiation of BMSC were tested by embedding BMSC in alginic acid gel beads. The cells were suspended in a 2% sodium alginate solution. The suspension was dripped in a CaCl2 solution with a pipette for gelation. Ten minutes later, the resulting microcapsules were washed twice with Ca/Mg-free PBS and once with DMED-HG. The resulting beads contained 1×10^6 cells per 40 μl of beads.
# The alginic acid gel beads containing 10 μg/ml of SDF-1 or 250 μg/ml of AMD3100 were cultured in DMED-HG containing 10% FBS and 1% antibiotics for 3 hours, 1 day, 2 days, 3 days and 7 days. The cells collected from the alginic acid gel beads were washed with PBS for three times, incubated in 50 mM EDTA (Gibco BRL laboratories) at 37° C. under 5% CO2. Ten minutes later, the cells were centrifuged at 1,500 g for 5 minutes for cell collection and the number of live cells was counted with Cell Counting Kit-8 (Dojindo Laboratories, Tokyo, Japan).
# [2] = system: bone marrow mesenchymal stromal cells (BMSC); assay: BMSC differentiation into chondrocytes in alginic acid gel beads; assay type: cell-based, Japanese white rabbit; conditions: 10 μg/ml SDF-1 or 250 μg/ml AMD3100 in alginic acid gel beads vs alginic acid only, 28 days
# Description: as §1, §2
# Differentiation into chondrocytes in the alginic acid gel beads was tested by culturing BMSC-containing beads in a DMED-HG medium containing 100 μg/ml sodium pyruvate (ICN Biomedicals, Aurora, Ohio), 40 μg/ml proline (ICN Biomedicals), 50 μg/ml ascorbate-2-phosphate (Wako, Osaka, Japan), 1×10^−7M dexamethasone (ICN Biomedicals), 1% ITS plus mix (Sigma-Aldrich, St. Louis., Mo.), 1% antibiotics and 10 ng/ml recombinant human transforming growth factor […] (R&D Systems, Minneapolis, Minn.) (dissolved with 4 mM HCl containing 1 μg/ml bovine serum albumin) for 28 days. The medium was exchanged every three days. […]
smiles,measurement,setting,value
c1cc(CN2CCCNCCNCCCNCC2)ccc1CN1CCCNCCNCCCNCC1 [AMD3100],BMSC proliferation (number of live cells),[1],no significant difference
same,differentiation of BMSC into chondrocytes,[2],no difference

# Source: patent US9821027B2, “Method for regenerating cartilage comprising applying a monovalent metal salt of alginic acid and SDF-1” (Mochida Pharmaceutical Co., Ltd., priority 2011, dated 2017)
